Source: PubChem BioAssay AID1963835 (Molecular Pharmacology Branch, DTP, NCI, 2024)

System: 699152-130-R-J1-PDC complex spheroid viability
Assay: Anticancer human tumor 699152-130-R-J1-PDC patient-derived pancreatic carcinoma cell line growth inhibition [POLQ]
Conditions: for IC50: curve of first compound; for viability, T/C: stronger effect = lower value; active means viability on the fitted dose curve at most 10% of control; inactive means the rest
Protocol: Multicellular complex tumor spheroid response to Polymerase (POL) inhibitors (novobiocin, ART-558, RP6685) in combination with a variety of drugs and investigational agents in selected tumor cell lines
The POL inhibitors (novobiocin, ART-558, and RP6685) were evaluated both individually and in combination with standard of care and investigational anticancer small molecules within a complex spheroid model of solid tumors. . Complex spheroids include a stromal component modeled by human endothelial cells (HUVEC) and fibroblasts modeled by human mesenchymal stem cells (MSCs). The concentration ranges selected for each drug and investigational agent were based upon clinically achievable concentrations if the clinical Cmax of the agent was known.
Compounds. The drugs and investigational agents: novobiocin (NSC847541), ART-558 (NSC835418), RP-6685 (NSC848927), peposertib (NSC802822), ceralasertib (NSC780249), elimusertib (NSC800525), camonsertib (NSC841442), AZD-1390 (NSC803789), olaparib (NSC753686), talazoparib (NSC767125), rucaparib (NSC756644), sotorasib (NSC818433), MRTX-1133 (NSC836407), SN-38 (NSC673596), topotecan (NSC609699), epotoside (NSC141540), doxorubicin (NSC123127), gemcitabine (NSC613327), 5-fluorouracil (NSC19893), paclitaxel (NSC125973), vemurafenib (NSC761431), MSA-2 (NSC828583), SN-011 (NSC837082), adavosertib (NSC754352), prexasertib (NSC758257), carboplatin (NSC241240) and oxaliplatin (NSC266046), were obtained from the National Cancer Institute (NCI) Developmental Therapeutics Program Chemical Repository (21). The FDA-approved anticancer drug set is available from the Developmental Therapeutics Program at https://dtp.cancer.gov/organization/dscb/obtaining/. […] The stock solutions were prepared in dimethyl sulfoxide (DMSO, Sigma-Aldrich, St. Louis, MO, cat. D2650), except for the platinum compounds which were prepared in saline (Quality Biological, Gaithersburg, MD, cat. 114-055-101), at 800-fold the tested concentration and stored at -70 degrees C prior to their use. All drugs and investigational agents were tested over a range starting from a high concentration at or near the clinical Cmax and decreasing in half-log increments. If the clinical Cmax for an agent had not been determined, the highest concentration tested was 10 microM, except for SN-38, which was tested at a high concentration of 1 microM.
Cell Culture. All cells were maintained in an incubator at 37 degrees C and 5% CO2 with 95% humidity. The PDC lines were cultured according to standard operating procedures established by the NCI PDMR (https://pdmr.cancer.gov). Table 3 of the manuscript, lists the cell lines along with the number of the three cell types plated to form the mct-spheroids and media for tumor cell growth. After thawing, all PDC lines, except 997537-175-T-J1-PDC and 415267-285-R-J2-PDC, were cultured in Matrigel-coated flasks prepared with a working solution of 1X Ham's F-12 nutrient mix, without supplementation (Thermo Fisher Scientific, cat. 11765054), 100 U/mL penicillin-streptomycin (Thermo Fisher Scientific, cat. 15140122), and 2.5% Matrigel (Corning Inc., Corning, NY, cat. 354248) for the first three passages. The two PDC lines 997537-175-T-J1-PDC and 415267-285-R-J2-PDC were cultured on uncoated flasks. The 857933-349-R-J2-PDC line was cultured in 6C/Colon 1B media containing advanced DMEM/F-12 (Thermo Fisher Scientific, cat. 12634028), 10 mM HEPES (Thermo Fisher Scientific, cat. 15630080), 1X GlutaMAX supplement (Thermo Fisher Scientific, cat. 35050061), 0.1 mg/mL primocin (InvivoGen, San Diego, CA, cat. ant-pm-2), 10% defined fetal bovine serum, heat inactivated (HyClone Laboratories Inc., Logan, UT, cat. SH30070.03HI), 50% L-WRN conditioned media (ATCC, cat. CRL-3276), 1.25 mM N-Acetyl-L-cysteine (Sigma-Aldrich, cat. A9165), 10 mM nicotinamide (Sigma-Aldrich, cat. N0636), 1X B-27 supplement (Thermo Fisher Scientific, cat. 17504044), 1X N-2 supplement (Thermo Fisher Scientific, cat. […]

[1] = second compound 0.0316 µM, first compound 0.0316 µM
[2] = second compound 0.0316 µM, first compound 0.1 µM
[3] = second compound 0.0316 µM, first compound 0.316 µM
[4] = second compound 0.0316 µM, first compound 1 µM
[5] = second compound 0.1 µM, first compound 0.0316 µM
[6] = second compound 0.1 µM, first compound 0.1 µM
[7] = second compound 0.1 µM, first compound 0.316 µM
[8] = second compound 0.1 µM, first compound 1 µM
[9] = second compound 0.316 µM, first compound 0.0316 µM
[10] = second compound 0.316 µM, first compound 0.1 µM
[11] = second compound 0.316 µM, first compound 0.316 µM
[12] = second compound 0.316 µM, first compound 1 µM
[13] = second compound 1 µM, first compound 0.0316 µM
[14] = second compound 1 µM, first compound 0.1 µM
[15] = second compound 1 µM, first compound 0.316 µM
[16] = second compound 1 µM, first compound 1 µM
[17] = second compound 3.16 µM, first compound 0.0316 µM
[18] = second compound 3.16 µM, first compound 0.1 µM
[19] = second compound 3.16 µM, first compound 0.316 µM
[20] = second compound 3.16 µM, first compound 1 µM
[21] = second compound 10 µM, first compound 0.0316 µM
[22] = second compound 10 µM, first compound 0.1 µM
[23] = second compound 10 µM, first compound 0.316 µM
[24] = second compound 10 µM, first compound 1 µM
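Further: spheroids exposed to agents for 7 days before viability reading.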
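Wherever viability, T/C is given: percent of DMSO vehicle control viability so 100% = vehicle and 0% = no viable signal.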

CCCS(=O)(=O)Nc1ccc(F)c(C(=O)c2c[nH]c3ncc(-c4ccc(Cl)cc4)cc23)c1F + Nc1ccc(C#CCN(C(=O)Cc2ncc(C(F)(F)F)cc2C(F)(F)F)c2ccc(F)cc2)nn1
9380 nM: IC50 (second compound 3.16 µM)
8520 nM: IC50 (second compound 0.0316 µM)
8350 nM: IC50 (second compound 1 µM)
8880 nM: IC50 (second compound 0.1 µM)
inactive: viability, T/C [1] 101% | viability, T/C [2] 113% | viability, T/C [3] 118% | viability, T/C [4] 167% | viability, T/C (second compound 0.0316 µM, first compound 3.16 µM) 167% | viability, T/C (second compound 0.0316 µM, first compound 10 µM) 36.3% | viability, T/C [5] 109% | viability, T/C [6] 117% | viability, T/C [7] 119% | viability, T/C [8] 143% | viability, T/C (second compound 0.1 µM, first compound 3.16 µM) 188% | viability, T/C (second compound 0.1 µM, first compound 10 µM) 40% | viability, T/C [9] 111% | viability, T/C [10] 113% | viability, T/C [11] 132% | viability, T/C [12] 175% | viability, T/C (second compound 0.316 µM, first compound 3.16 µM) 184% | viability, T/C (second compound 0.316 µM, first compound 10 µM) 36.2% | viability, T/C [13] 96.2% | viability, T/C [14] 116% | viability, T/C [15] 119% | viability, T/C [16] 133% | viability, T/C (second compound 1 µM, first compound 3.16 µM) 166% | viability, T/C (second compound 1 µM, first compound 10 µM) 35.8% | viability, T/C [17] 114% | viability, T/C [18] 123% | viability, T/C [19] 124% | viability, T/C [20] 163% | viability, T/C (second compound 3.16 µM, first compound 3.16 µM) 179% | viability, T/C (second compound 3.16 µM, first compound 10 µM) 44.5% | viability, T/C [21] 124% | viability, T/C [22] 128% | viability, T/C [23] 131% | viability, T/C [24] 161% | viability, T/C (second compound 10 µM, first compound 3.16 µM) 192% | viability, T/C (second compound 10 µM, first compound 10 µM) 52.9%
8620 nM: IC50 (second compound 0.316 µM)
> 10000 nM: IC50 (second compound 10 µM)

CCc1c2c(nc3ccc(O)cc13)-c1cc3c(c(=O)n1C2)COC(=O)[C@]3(O)CC + COC1C(OC(N)=O)C(O)C(Oc2ccc3c(O)c(NC(=O)c4ccc(O)c(CC=C(C)C)c4)c(=O)oc3c2C)OC1(C)C
22.6 nM: IC50 (second compound 0.0316 µM)
25.6 nM: IC50 (second compound 3.16 µM)
25 nM: IC50 (second compound 0.316 µM)
active: viability, T/C [16] 7.35% | viability, T/C [20] 7.68%
21.3 nM: IC50 (second compound 0.1 µM)
40.5 nM: IC50 (second compound 1 µM)
inactive: viability, T/C (second compound 0.0316 µM, first compound 0.00316 µM) 73.5% | viability, T/C (second compound 0.0316 µM, first compound 0.01 µM) 51.3% | viability, T/C [1] 43.5% | viability, T/C [2] 41.9% | viability, T/C [3] 24.4% | viability, T/C [4] 9.02% | viability, T/C (second compound 0.1 µM, first compound 0.00316 µM) 79.7% | viability, T/C (second compound 0.1 µM, first compound 0.01 µM) 49.5% | viability, T/C [5] 45.1% | viability, T/C [6] 37.3% | viability, T/C [7] 26.5% | viability, T/C [8] 10.1% | viability, T/C (second compound 0.316 µM, first compound 0.00316 µM) 79% | viability, T/C (second compound 0.316 µM, first compound 0.01 µM) 46.1% | viability, T/C [9] 47.6% | viability, T/C [10] 43.4% | viability, T/C [11] 22% | viability, T/C [12] 12.9% | viability, T/C (second compound 1 µM, first compound 0.00316 µM) 66.9% | viability, T/C (second compound 1 µM, first compound 0.01 µM) 57% | viability, T/C [13] 51.8% | viability, T/C [14] 45% | viability, T/C [15] 23.1% | viability, T/C (second compound 3.16 µM, first compound 0.00316 µM) 66.7% | viability, T/C (second compound 3.16 µM, first compound 0.01 µM) 51.6% | viability, T/C [17] 46.9% | viability, T/C [18] 40.4% | viability, T/C [19] 28.5% | viability, T/C (second compound 10 µM, first compound 0.00316 µM) 70.5% | viability, T/C (second compound 10 µM, first compound 0.01 µM) 55.7% | viability, T/C [21] 43.6% | viability, T/C [22] 39.6% | viability, T/C [23] 28% | viability, T/C [24] 7.11%
24.9 nM: IC50 (second compound 10 µM)
